Measurements reported in patent US12435060B2, “Acylamino bridged heterocyclic compound, and composition and application thereof” (BEIJING SCITECH-MQ PHARMACEUTICALS LIMITED, priority 2019, dated 2025).

Test system: HT29 cells
Assay: Inhibition of cell necrosis (CCK8 method), induced programmed necrosis of HT29 cells
Format: cell-based
Settings: Homo sapiens, HT-29; rescue from necrosis induced by TNF-α 20 ng/mL, AT-406 1 μM, Z-VAD-FMK 20 μM; 16-20 hours; CCK-8, OD 450 nm
Method: Assay Example 2. Assay Method for Compounds Inhibiting Cell Necrosis (CCK8 Method)
In this assay example 2, under the condition of inducing programmed cell necrosis, different concentrations of the test compounds were added to test the IC50 of the rescue effect of the test compounds on the programmed necrosis.
• Compounds: Dissolved in DMSO to make a 10 mM solution; • TNF-α: The initial concentration was 100 μg/mL; • Z-VAD-FMK: Dissolved in DMSO to make a 10 mM solution; • AT-406: Dissolved in DMSO to make a 10 mM solution. I. Experimental Steps • 1) Compound dilution: All test compounds were dissolved in DMSO to prepare a 10 mM stock solution, and the first concentration gradient dilution of the test compounds was completed in DMSO. The gradient dilution factor was 4 times and 9 concentration gradients were made; A 40-fold overall dilution of all compounds was completed in the cell culture medium, and the resulting compound was 10× compound, which will be added to the wells of the 96-well plate containing cells, so that the final cell culture medium was 1× the designed final concentration. The general drug design is 9 concentration gradients, of which the highest final concentration is 25000 nM, the lowest concentration after 4-fold dilution of 9 concentrations is 0.38 nM, and the final concentration of DMSO in all wells is 0.25%. The compound dilution process is shown in FIG. 3. • 2) HT 29 cells in good growth condition were selected, trypsinized, the cells was collected by centrifugation, resuspended in McCOY's 5A complete medium (containing 10% FBS) and counted, and the number of cells and survival rate were recorded. • 3) Cells were inoculated to the 60 wells in the middle of the 96-well culture plate at a density of 12000 cells/80 μL/well, surrounding wells were filled with sterile water, and incubated overnight. • 4) 10 μL of the 10× compound diluted with the medium was added to the assay wells, 10 μL of McCOY's 5A complete medium containing 2.5% DMSO was added to the inducer-free wells and the control wells, mixed and shaked, and incubated for 30 minutes. • 5) Then 10 μL of inducer mixture (TNF-α, AT-406, Z-VAD-FMK with the final concentration of 20 ng/mL, 1 μM, 20 μM) was added into the assay wells and control wells. 10 μL McCOY's 5A complete medium was added to wells without inducer. Cells were cultured in an incubator with 5% CO2, at 37° C. • 6) After culturing for 16-20 hours, 10 μL of CCK-8 reagent was added to each well, and incubated for about 2 hours; • 7) The OD value was read at 450 nm on the multi-function plate reader. • 8) Data processing: Inhibition rate of necrosis (%)=100*(X−B)/(A−B) • A: The OD values of the wells without inducer (containing cells, CCK-8, without compound and inducer); • […]: OD values of assay wells (containing cells, CCK-8, compound, inducer); • B: OD values of control wells (containing cells, CCK-8, inducer, without compound). Then the value were imported into Graphpad Prism5 software for curve fitting and the IC50 values were calculated.

SMILES	IC50
COCCOc1ccc(C)c(-c2ccnc(NC(=O)c3nnc(Cc4ccccc4)s3)c2)c1 [Example 130, 5-benzyl-N-(4-(5-(2-methoxyethoxy)-2-methylphenyl)pyridin-2-yl)-1,3,4-thiodiazol-2-carboxamide]	> 10000 nM
CC(C)(O)CCCOc1ccc(Cl)c(-c2ccnc(NC(=O)c3nnc(Cc4ccc(F)c(F)c4F)[nH]3)c2)c1 [Example 351, N-(4-(2-chloro-5-((4-hydroxy-4-methylpentyl)oxy)phenyl)pyridin-2-yl)-5-(2,3,4-trifluorobenzyl)-4H-1,2,4-triazole-3-carboxamide]	100 to 1000 nM
Cc1ccc(OCCCC(C)(C)O)cc1-c1ccnc(NC(=O)c2nnc(Cc3cccc(C#N)c3)[nH]2)c1 [Example 187, 5-(3-cyanobenzyl)-N-(4-(5-((4-hydroxy-4-methylpentyl)oxy)-2-methylphenyl)pyridin-2-yl)-4H-1,2,4-triazole-3-carboxamide]	≤ 100 nM
Cc1ccc(N(C)CCCC(C)(C)O)cc1-c1ccnc(NC(=O)c2nnc(Cc3ccccc3)[nH]2)c1 [Example 168]	100 to 1000 nM
Cc1ccc(OCCN2CCCCC2)cc1-c1ccnc(NC(=O)c2nnc(Cc3cccc(Cl)c3F)[nH]2)c1 [Example 233, 5-(2-fluoro-3-chlorobenzyl)-N-(4-(2-methyl-5-(2-(piperidin-1-yl)ethoxy)phenyl)pyridin-2-yl)-4H-1,2,4-triazole-3-carboxamide]	1000 to 10000 nM
CC(C)OCCOc1ccc(C(F)(F)F)c(-c2ccnc(NC(=O)c3nnc(Cc4ccccc4F)[nH]3)c2)c1 [Example 288, 5-(2-fluorobenzyl)-N-(4-(5-(2-isopropoxyethoxy)-2-(trifluoromethyl)phenyl)pyridin-2-yl)-4H-1,2,4-triazole-3-carboxamide]	≤ 100 nM
Cc1ccc(OCCCC(C)(C)O)cc1-c1ccnc(NC(=O)c2nnc(Cc3ccncc3)[nH]2)c1 [Example 221, N-(4-(5-((4-hydroxy-4-methylpentyl)oxy)-2-methylphenyl)pyridin-2-yl)-5-(pyridin-4-ylmethyl)-4H-1,2,4-triazole-3-carboxamide]	100 to 1000 nM
Cn1nccc1-c1ccnc(NC(=O)c2nnc(Cc3ccccc3)[nH]2)c1 [Example 26, 5-benzyl-N-(4-(1-methyl-1H-pyrazol-5-yl)pyridin-2-yl)-4H-1,2,4-triazole-3-carboxamide]	100 to 1000 nM
Cc1ccccc1-c1cncc(NC(=O)c2nnc(Cc3ccccc3)[nH]2)c1 [Example 29, 5-benzyl-N-(5-(o-methylphenyl)pyridin-3-yl)-4H-1,2,4-triazole-3-carboxamide]	> 10000 nM
O=C(Nc1cc(-c2cccc3c2OCC3)ccn1)c1nnc(Cc2ccccc2)[nH]1 [Example 38, 5-benzyl-N-(4-(2,3-dihydrobenzofuran-7-yl)pyridin-2-yl)-4H-1,2,4-triazole-3-carboxamide]	1000 to 10000 nM
COc1ccc(-c2ccnc(NC(=O)c3nnc(Cc4ccccc4)[nH]3)c2)cc1 [Example 9, 5-benzyl-N-(4-(4-methoxyphenyl)pyridin-2-yl)-4H-1,2,4-triazole-3-carboxamide]	> 10000 nM
Cc1cnc(NC(=O)c2nnc(Cc3ccccc3F)[nH]2)cc1-c1cc(OCCC2CCOCC2)ccc1F [Example 335, N-(4-(2-fluoro-5-(2-(tetrahydro-2H-pyran-4-yl)ethoxy)phenyl)-5-methylpyridin-2-yl)-5-(2-fluorobenzyl)-4H-1,2,4-triazole-3-carboxamide]	1000 to 10000 nM
Cc1ccc(OCCCC(C)(C)O)cc1-c1ccnc(NC(=O)c2nnc(Cc3ccc(F)cc3)[nH]2)c1 [Example 188, 5-(4-fluorobenzyl)-N-(4-(5-((4-hydroxy-4-methylpentyl)oxy)-2-methylphenyl)pyridin-2-yl)-4H-1,2,4-triazole-3-carboxamide]	≤ 100 nM
COc1cccc(Cc2nnc(C(=O)Nc3cc(-c4cc(OCCCC(C)(C)O)ccc4C)ccn3)[nH]2)c1 [Example 186, 5-(3-methoxybenzyl)-N-(4-(5-((4-hydroxy-4-methylpentyl)oxy)-2-methylphenyl)pyridin-2-yl)-4H-1,2,4-triazole-3-carboxamide]	100 to 1000 nM
Cc1ccc(OCCC2CCOCC2)cc1-c1cc(NC(=O)c2nnc(CC3CCCCC3)[nH]2)ncc1Cl [Example 252, N-(5-chloro-4-(2-methyl-5-(2-(tetrahydro-2H-pyran-4-yl)ethoxy)phenyl)pyridin-2-yl)-5-(cyclohexylmethyl)-4H-1,2,4-triazole-3-carboxamide]	≤ 100 nM
O=C(Nc1cc(-c2cc(OCCC3CCOCC3)ccc2Cl)ccn1)c1nnc(CC2CCCCC2)[nH]1 [Example 406, N-(4-(2-chloro-5-(2-(tetrahydro-2H-pyran-4-yl)ethoxy)phenyl)pyridin-2-yl)-5-(cyclohexylmethyl)-4H-1,2,4-triazole-3-carboxamide]	≤ 100 nM
O=C(Nc1cc(-c2cc(OCCC3CCOCC3)ccc2C(F)(F)F)ccn1)c1nnc(CC2CCCC2)[nH]1 [Example 309, 5-(cyclopentylmethyl)-N-(4-(5-(2-(tetrahydro-2H-pyran-4-yl)ethoxy)-2-(trifluoromethyl)phenyl)pyridin-2-yl)-4H-1,2,4-triazole-3-carboxamide]	≤ 100 nM
Cc1ccc(OCCCC(C)(C)O)cc1-c1ccnc(NC(=O)c2nnc(CC(C)C)[nH]2)c1 [Example 169, N-(4-(5-((4-hydroxy-4-methylpentyl)oxy)-2-methylphenyl)pyridin-2-yl)-5-isobutyl-4H-1,2,4-triazole-3-carboxamide]	≤ 100 nM
COCCCSc1ccc(C)c(-c2ccnc(NC(=O)c3nnc(Cc4ccccc4)[nH]3)c2)c1 [Example 59, 5-benzyl-N-(4-(5-(3-methoxypropylthio)-2-methylphenyl)pyridin-2-yl)-4H-1,2,4-triazole-3-carboxamide]	≤ 100 nM
Cc1ccc(S(=O)(=O)CCCC(C)(C)O)cc1-c1ccnc(NC(=O)c2nnc(CC3CCCC3)[nH]2)c1 [Example 475, 5-(cyclopentylmethyl)-N-(4-(5-((4-hydroxy-4-methylpentyl)sulfonyl)-2-methylphenyl)pyridin-2-yl)-4H-1,2,4-triazole-3-carboxamide]	≤ 100 nM
CC(C)OCCOc1ccc(C(F)(F)F)c(-c2ccnc(NC(=O)c3nnc(Cc4ccccc4)[nH]3)c2)c1 [Example 287, 5-benzyl-N-(4-(5-(2-isopropoxyethoxy)-2-(trifluoromethyl)phenyl)pyridin-2-yl)-4H-1,2,4-triazole-3-carboxamide]	≤ 100 nM
O=C(Nc1cc(-c2cc(OCCC3CCOCC3)ccc2Cl)c(F)cn1)c1nnc(CC2CCCCC2)[nH]1 [Example 429, N-(4-(2-chloro-5-(2-(tetrahydro-2H-pyran-4-yl)ethoxy)phenyl)-5-fluoropyridin-2-yl)-5-(cyclohexylmethyl)-4H-1,2,4-triazole-3-carboxamide]	≤ 100 nM
CC(C)OCCOc1ccc(Cl)c(-c2ccnc(NC(=O)c3nnc(Cc4ccccc4F)[nH]3)c2)c1 [Example 388, 5-(2-fluorobenzyl)-N-(4-(2-chloro-5-(2-isopropoxyethoxy)phenyl)pyridin-2-yl)-4H-1,2,4-triazole-3-carboxamide]	≤ 100 nM
COc1ccc(C2CC2)cc1-c1ccnc(NC(=O)c2nnc(Cc3ccccc3)[nH]2)c1 [Example 46, 5-benzyl-N-(4-(5-cyclopropyl-2-methoxyphenyl)pyridin-2-yl)-4H-1,2,4-triazole-3-carboxamide]	1000 to 10000 nM
CC(C)(O)CCCOc1ccc(F)c(-c2ccnc(NC(=O)c3nnc(Cc4ccccc4F)[nH]3)c2)c1 [Example 313, 5-(2-fluorobenzyl)-N-(4-(2-fluoro-5-((4-hydroxy-4-methylpentyl)oxy)phenyl)pyridin-2-yl)-4H-1,2,4-triazole-3-carboxamide]	100 to 1000 nM
Cc1ccc(OCCCC#N)cc1-c1ccnc(NC(=O)c2nnc(Cc3ccccc3)[nH]2)c1 [Example 148, 5-benzyl-N-(4-(5-(3-cyanopropoxy)-2-methylphenyl)pyridin-2-yl)-4H-1,2,4-triazole-3-carboxamide]	≤ 100 nM
Cc1ccc(OCCCC(N)=O)cc1-c1ccnc(NC(=O)c2nnc(Cc3ccccc3)[nH]2)c1 [Example 157, N-(4-(5-(4-amino-4-oxobutoxy)-2-methylphenyl)pyridin-2-yl)-5-benzyl-4H-1,2,4-triazole-3-carboxamide]	100 to 1000 nM
